Measurements published in patent US20230365563A1, “QUINAZOLINE COMPOUND AND APPLICATION THEREOF” (SHANGHAI PHARMACEUTICALS HOLDING CO., LTD., priority 2020, published 2023).
Counter-ions that a name gives are not always drawn.

Columns and labels:
KRAS-G12D and SOS1 = target: T1, KRAS-G12D and SOS1 (Homo sapiens, UniProt P01116, G12D); assay: Inhibition of KRAS-G12D/SOS1 binding (Cisbio binding kit, 665/615 ratio), Effect Embodiment A; settings: read-out: GTP-KRAS-G12D:SOS1 IC50
T1 construct: purchased
Summary of the method: (§1)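 Compounds are tested over eleven threefold dilution steps in duplicate, with final DMSO at 1%.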

KRAS_WT and SOS1 = target: T2, KRAS_WT and SOS1 (Homo sapiens, UniProt P01116); assay: Inhibition of KRAS_WT/SOS1 binding (Cisbio binding kit, 665/615 ratio), Effect Embodiment C; settings: read-out: GTP-KRAS-WT:SOS1 IC50
T2 construct: purchased
Summary of the method: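 Compounds tested as 3-fold, 11-point dilutions in duplicate at 1% DMSO final against the KRAS_WT/SOS1 binding system. IC50 derived by nonlinear regression fit.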

KRAS_G12D and cRAF = target: T3, KRAS_G12D and cRAF (Homo sapiens, UniProt P01116, G12D); assay: Inhibition of KRAS_G12D/cRAF binding (Cisbio binding kit, 665/615 ratio), Effect Embodiment B; settings: read-out: GTP-KRAS-G12D:CRAF IC50
T3 construct: purchased
Summary of the method: as §1

T1 sequence (P01116 1-188 isoform P01116-2 G12D): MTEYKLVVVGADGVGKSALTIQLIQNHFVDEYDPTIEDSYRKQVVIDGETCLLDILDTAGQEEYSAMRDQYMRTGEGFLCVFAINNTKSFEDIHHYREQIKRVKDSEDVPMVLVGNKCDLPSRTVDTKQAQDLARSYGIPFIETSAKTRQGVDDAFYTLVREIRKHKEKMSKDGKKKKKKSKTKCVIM
T3 sequence (P01116 1-188 isoform P01116-2 G12D): as above
T2 sequence (P01116 1-188 isoform P01116-2): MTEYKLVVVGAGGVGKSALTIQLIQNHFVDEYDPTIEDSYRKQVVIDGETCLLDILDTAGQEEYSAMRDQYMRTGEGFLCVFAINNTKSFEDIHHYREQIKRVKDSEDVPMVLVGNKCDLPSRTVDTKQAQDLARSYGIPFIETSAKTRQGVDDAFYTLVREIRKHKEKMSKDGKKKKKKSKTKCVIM

| IC50 (KRAS-G12D and SOS1) | IC50 (KRAS_WT and SOS1) | IC50 (KRAS_G12D and cRAF) | Compound |
| --- | --- | --- | --- |
| 54.1 nM | 105 nM | 38.5 nM | Oc1cc(Cl)c(C2CC2)c(-c2c(Cl)cc3c(N4CC5CCC(C4)N5)nc(OC[C@@]45CCCN4C[C@H](F)C5)nc3c2F)c1 (single isomer, unassigned) [Compound 198b, 3-((S or R)-4-((1R,5S)-3,8-diazabicyclo[3.2.1]octan-3-yl)-6-choro-8-fluoro-2-((2R,7aS)-2-fluorotetrahydro-1H-pyrrolin-7a(5H)-yl)methoxy)quinazolin-7-yl)-5-chloro-4-cyclopropylphenol formate] |
| 13.2 nM | 58.4 nM | 9 nM | Oc1cc(-c2c(Cl)cc3c(N4CC5CCC(C4)N5)nc(OCC45CCCN4CCC5)nc3c2F)c2ccccc2c1 (single isomer, unassigned) [Compound 199, 4-((R or S)-4-((1R,5S)-3,8-diazabicyclo[3.2.1]octan-3-yl)-6-chloro-8-fluoro-2-((tetrahydro-1H-pyrrolin-7a(5H)-yl)methoxy)quinazolin-7-yl)naphthalen-2-ol diformate] |
| 62 nM | 2490 nM | 73.7 nM | Oc1cc(-c2c(Cl)cc3c(N4CC5CCC(C4)N5)nc(OCCCN4C5COCC4C5)nc3c2F)c2ccccc2c1 (single isomer, unassigned) [Compound 200, 4-((7S or 7R)-2-(3-(3-oxa-6-azabicyclo[3.1.1]heptan-6-yl)propoxy)-4-((1R,5S)-3,8-diazabicyclo[3.2.1]octan-3-yl)-6-chloro-8-fluoroquinazolin-7-yl)naphthalen-2-ol diformate] |
| 51.8 nM | 2150 nM | 168 nM | C[C@H](COc1nc(N2CC3CCC(C2)N3)c2cc(Cl)c(-c3cc(O)cc4ccccc34)c(F)c2n1)CN(C)C (single isomer, unassigned) [Compound 202, 4-((S or R)-4-((1R,5S)-3,8-diazabicyclo[3.2.1]octan-3-yl)-6-chloro-2-((S)-3-(dimethylamino)-2-methylpropoxy)-8-fluoroquinazolin-7-yl)naphthalen-2-ol diformate] |
| 19.8 nM | 893 nM | 33.9 nM | C[C@@H](COc1nc(N2CC3CCC(C2)N3)c2cc(Cl)c(-c3cc(O)cc4ccccc34)c(F)c2n1)CN(C)C (single isomer, unassigned) [Compound 203, 4-((S or R)-4-((1R,5S)-3,8-diazabicyclo[3.2.1]octan-3-yl)-6-chloro-2-((R)-3-(dimethylamino)-2-methylpropoxy)-8-fluoroquinazolin-7-yl)naphthalen-2-ol diformate] |
| 77.4 nM | 4250 nM | 121 nM | Oc1cc(-c2c(Cl)cc3c(N4CC5CCC(C4)N5)nc(OCC4(CN5C6CCC5COC6)COC4)nc3c2F)c2ccccc2c1 (single isomer, unassigned) [Compound 204, 4-((7S or 7R)-2-((3-(3-oxa-8-azabicyclo[3.2.1]octan-8-ylmethyl)oxa-3-yl)methoxy)-4-((1R,5S)-3,8-diazabicyclo[3.2.1]octan-3-yl)-6-chloro-8-fluoroquinazolin-7-yl)naphthalen-2-ol ditrifluoroacetate] |
| 11.6 nM | 505 nM | 13 nM | C[C@@H](COc1nc(N2CC3CCC(C2)N3)c2cc(Cl)c(-c3cc(O)cc4ccccc34)c(F)c2n1)CN1C[C@@H](C)O[C@@H](C)C1 (single isomer, unassigned) [Compound 205, 4-((S or R)-4-((1R,5S)-3,8-diazabicyclo[3.2.1]octan-3-yl)-6-chloro-2-((R)-3-((2S,6R)-2,6-dimethylmorpholinyl)-2-methylpropoxy)-8-fluoroquinazolin-7-yl)naphthalenol formate] |
| 46.1 nM | 6830 nM | 134 nM | C[C@H](COc1nc(N2CC3CCC(C2)N3)c2cc(Cl)c(-c3cc(O)cc4ccccc34)c(F)c2n1)CN1C[C@@H](C)O[C@@H](C)C1 (single isomer, unassigned) [Compound 206, 4-((S or R)-4-((1R,5S)-3,8-diazabicyclo[3.2.1]octan-3-yl)-6-chloro-2-((S)-3-((2S,6R)-2,6-dimethylmorpholinyl)-2-methylpropoxy)-8-fluoroquinazolin-7-yl)naphthalen-2-ol diformate] |
| 11.6 nM | 196 nM | 7.23 nM | C[C@@H]1CN(CC2(COc3nc(N4CC5CCC(C4)N5)c4cc(Cl)c(-c5cc(O)cc6ccccc56)c(F)c4n3)CC2)C[C@H](C)O1 (single isomer, unassigned) [Compound 207, 4-((S or R)-4-((1R,5S)-3,8-diazabicyclo[3.2.1]octan-3-yl)-6-chloro-2-((2S,6R)-2,6-dimethylmorpholinyl)methyl)cyclopropyl)methoxy)-8-fluoroquinazolin-7-yl)naphthalenol formate] |
| 36.1 nM | 5650 nM | 59.4 nM | Oc1cc(-c2c(Cl)cc3c(N4CC5CCC(C4)N5)nc(OCC(CN4C5CCC4COC5)C4CC4)nc3c2F)c2ccccc2c1 (single isomer, unassigned) [Compound 209a, 4-((7S or 7R))-2-(2(R or S))-3-(3-oxa-8-azabicyclo[3.2.1]octan-8-yl)-2-cyclopropylpropoxy)-4-((1R,5S)-3,8-diazabicyclo[3.2.1]octan-3-yl)-6-chloro-8-fluoroquinazolin-7-yl)naphthalen-2-ol diformate] |
| 17.8 nM | 2070 nM | 17.8 nM | C[C@@H](COc1nc(N2C[C@H]3CC[C@@H](C2)N3)c2cc(Cl)c(-c3cc(O)cc4ccccc34)c(F)c2n1)CN1[C@@H]2CCC[C@H]1COC2 (single isomer, unassigned) [Compound 210, (S or R) 4-(2-((R)-3-((1R,5S)-3-oxa-9-azabicyclo[3.3.1]nonan-9-yl)-2-methylpropoxy)-4-((1R,5S)-3,8-diazabicyclo[3.2.1]octan-3-yl)-6-chloro-8-fluoroquinazolin-7-yl)naphthalen-2-ol diformate] |
| 13.2 nM | 8.01 nM | 8.68 nM | Oc1cc(-c2c(Cl)cc3c(N4CC5CCC(C4)N5)nc(OC[C@@]45CCCN4C[C@H](F)C5)nc3c2F)c2c(F)c(F)ccc2c1 (single isomer, unassigned) [Compound 214a, 4-((S or R)-4-((1R,5S)-3,8-diazabicyclo[3.2.1]octane-3-yl)-6-chloro-8-fluoro-2-((2R,7aS)-2-fluorotetrahydro-1H-pyrrolidin-7a (5H)-yl)methoxy)quinazolin-7-yl)-5,6-difluoronaphthalen-2-ol diformate] |
| 11.9 nM | 52.4 nM | 5.44 nM | CCc1c(F)ccc2cc(O)cc(-c3c(F)cc4c(N5CC6CCC(C5)N6)nc(OCCCN5C6CCC5COC6)nc4c3F)c12 (single isomer, unassigned) [Compound 215a, 4-((7S or 7R)-2-(3-(3-oxa-8-azabicyclo[3.2.1]octan-8-yl)propoxy)-4-((1R,5S)-3,8-diazabicyclo[3.2.1]octan-3-yl)-6,8-difluoroquinazolin-7-yl)-5-ethyl-6-fluoronaphthalen-2-ol diformate] |
| 51.8 nM | 2020 nM | 49.4 nM | C[C@@H](COc1nc(N2CC3CCC(C2)N3)c2cc(Cl)c(-c3cc(O)cc4ccccc34)c(F)c2n1)CN1C[C@@H](C)O[C@H](C)C1 (single isomer, unassigned) [Compound 216, 4-((S or R)-4-((1R,5S)-3,8-diazabicyclo[3.2.1]octan-3-yl)-6-chloro-2-((R)-3-((2R,6R)-2,6-dimethylmorpholinyl)-2-methylpropoxy)-8-fluoroquinazolin-7-yl)naphthalen-ol diformate] |
| 63.6 nM | 5030 nM | 175 nM | CC[C@@H]1CN(CCCOc2nc(N3CC4CCC(C3)N4)c3cc(Cl)c(-c4cc(O)cc5ccccc45)c(F)c3n2)C[C@H](CC)O1 (single isomer, unassigned) [Compound 221, 4-((S or R)-4-((1R,5S)-3,8-diazabicyclo[3.2.1]octan-3-yl)-6-chloro-2-(3-((2S,6R)-2,6-diethylmorpholinyl)propoxy)-8-fluoroquinazolin-7-yl)naphthalen-2-ol formate] |
| 17.5 nM | 1700 nM | 15.6 nM | CO[C@H]1C[C@H]2CC[C@@H](C1)N2C[C@@H](C)COc1nc(N2CC3CCC(C2)N3)c2cc(Cl)c(-c3cc(O)cc4ccccc34)c(F)c2n1 (single isomer, unassigned) [Compound 223, 4-((S or R)-4-((1R,5S)-3,8-diazabicyclo[3.2.1]octan-3-yl)-6-chloro-8-fluoro-2-((R)-3-((1R,3R,5S)-3-methoxy-8-azabicyclo[3.2.1]octan-8-yl)-2-methylpropoxy)quinazolin-7-yl)naphthalen-2-ol diformate] |

| Compound | IC50 (KRAS-G12D and SOS1) | IC50 (KRAS_WT and SOS1) | IC50 (KRAS_G12D and cRAF) |
| --- | --- | --- | --- |
| CCC(COc1nc(N2CC3CCC(C2)N3)c2cc(Cl)c(-c3cc(O)cc4ccccc34)c(F)c2n1)CN1C2CCC1COC2 (single isomer, unassigned) [Compound 201a, (4S or 4R)-4-(2-((2R or 2S)-2-(3-oxa-8-azabicyclo[3.2.1]octan-8-ylmethyl)butoxy)-4-((1R,5S)-3,8-diazabicyclo[3.2.1]octan-3-yl)-6-chloro-8-fluoroquinazolin-7-yl)naphthalen-2-ol formate] | 29 nM | 1040 nM | 23.2 nM |
| CCC(COc1nc(N2CC3CCC(C2)N3)c2cc(Cl)c(-c3cc(O)cc4ccccc34)c(F)c2n1)CN1C2CCC1COC2 (single isomer, unassigned) [Compound 201b, (4S or 4R)-4-(2-((2S or 2R)-2-(3-oxa-8-azabicyclo[3.2.1]octan-8-ylmethyl)butoxy)-4-((1R,5S)-3,8-diazabicyclo[3.2.1]octan-3-yl)-6-chloro-8-fluoroquinazolin-7-yl)naphthalen-2-ol formate] | 54.6 nM | 2180 nM | 45.8 nM |
